Experimental data reported in US20240109896A1, “FGFR KINASE INHIBITOR AND USE THEREOF” (YA THERAPEUTICS INC, priority 2021, published 2024).
Like-named read-outs stand apart in the source and are kept apart here.

Experiments:
FGFR2 = FGFR2 (Homo sapiens, UniProt P21802); assay: In vitro activity inhibition test for kinase FGFR2; format: biochemical; conditions: kinase assay, 25° C.; read-out: Inhibition of separase IC50 (nM) FGFR2
FGFR4 = FGFR4 (Homo sapiens, UniProt P22455); assay: In vitro activity inhibition test for kinase FGFR4;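 also: caliper mobility shift assay of FGFR4 kinase activity, compounds tested as 10-point 4-fold dilution series with 0.5% DMSO final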
Chain of FGFR4 (P22455 22-802): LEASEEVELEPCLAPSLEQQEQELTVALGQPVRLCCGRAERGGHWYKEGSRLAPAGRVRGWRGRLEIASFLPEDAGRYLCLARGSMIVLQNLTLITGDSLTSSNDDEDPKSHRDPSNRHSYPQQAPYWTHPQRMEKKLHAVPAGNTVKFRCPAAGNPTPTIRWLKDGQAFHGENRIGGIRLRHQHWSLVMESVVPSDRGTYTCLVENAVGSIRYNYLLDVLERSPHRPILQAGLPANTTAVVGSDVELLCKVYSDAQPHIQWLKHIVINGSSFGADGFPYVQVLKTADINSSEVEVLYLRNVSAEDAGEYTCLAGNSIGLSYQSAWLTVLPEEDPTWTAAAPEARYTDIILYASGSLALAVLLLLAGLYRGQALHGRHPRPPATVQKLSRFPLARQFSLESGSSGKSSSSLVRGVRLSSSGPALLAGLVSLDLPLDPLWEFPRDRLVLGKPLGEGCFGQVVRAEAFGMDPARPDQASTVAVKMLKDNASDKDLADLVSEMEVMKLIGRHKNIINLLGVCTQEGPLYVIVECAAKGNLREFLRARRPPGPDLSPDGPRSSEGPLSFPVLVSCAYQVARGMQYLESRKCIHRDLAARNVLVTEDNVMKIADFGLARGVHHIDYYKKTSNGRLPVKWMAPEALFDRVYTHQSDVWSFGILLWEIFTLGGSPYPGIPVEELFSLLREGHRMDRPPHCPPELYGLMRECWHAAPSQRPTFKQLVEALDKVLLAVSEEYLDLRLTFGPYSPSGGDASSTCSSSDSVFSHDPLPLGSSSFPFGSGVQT
Experimental: (§3) In Vitro Activity Inhibition Test for Kinases FGFR1, FGFR2, FGFR3 and FGFR4
(§4) The activity of FGFR1, FGFR2, FGFR3 and FGFR4 protein kinases was determined by Caliper mobility shift assay. Perform a 4-fold gradient dilution from a working concentration of 0.2 mM in DMSO, diluting 10 concentrations. Add 2 μL of compound to 78 μL of 1× compound buffer. There were 10 points each for the negative control and the positive control. Shake the board on the rocker for 20 min. […] The final concentration of DMSO was 0.5%.

Hep3B cells = assay: Human hepatoma cell Hep3B survival test (CellTiter-Glo); format: cell-based; conditions: treated 72 hours, read-out: inhibitory activity on Hep3B cell proliferation IC50
Experimental: The Hep3B cell line of human liver cancer is derived from ATCC. Cells are supplemented with McCoy's 5A medium and additionally added fetal bovine serum (IOFBS). Cells are kept in the medium at 37° C., humidity at 95%, and carbon dioxide at 500. Hep3B cells were seeded in 96-well plates at a density of 3500 cells per well with a cell suspension volume of 90 μL per well and cultured at 37° C. in a cell culture incubator containing 500 CO2. […] The cells were then placed in a 37° C. incubator and treated with compounds for 72 hours.

FGFR3 = FGFR3 (Homo sapiens, UniProt P22607); assay: In vitro activity inhibition test for kinase FGFR3;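 also: FGFR3 kinase activity read by Caliper mobility shift assay, compounds run as 10-point 4-fold dilution series, final DMSO 0.5%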
Chain of FGFR3 (P22607 23-806): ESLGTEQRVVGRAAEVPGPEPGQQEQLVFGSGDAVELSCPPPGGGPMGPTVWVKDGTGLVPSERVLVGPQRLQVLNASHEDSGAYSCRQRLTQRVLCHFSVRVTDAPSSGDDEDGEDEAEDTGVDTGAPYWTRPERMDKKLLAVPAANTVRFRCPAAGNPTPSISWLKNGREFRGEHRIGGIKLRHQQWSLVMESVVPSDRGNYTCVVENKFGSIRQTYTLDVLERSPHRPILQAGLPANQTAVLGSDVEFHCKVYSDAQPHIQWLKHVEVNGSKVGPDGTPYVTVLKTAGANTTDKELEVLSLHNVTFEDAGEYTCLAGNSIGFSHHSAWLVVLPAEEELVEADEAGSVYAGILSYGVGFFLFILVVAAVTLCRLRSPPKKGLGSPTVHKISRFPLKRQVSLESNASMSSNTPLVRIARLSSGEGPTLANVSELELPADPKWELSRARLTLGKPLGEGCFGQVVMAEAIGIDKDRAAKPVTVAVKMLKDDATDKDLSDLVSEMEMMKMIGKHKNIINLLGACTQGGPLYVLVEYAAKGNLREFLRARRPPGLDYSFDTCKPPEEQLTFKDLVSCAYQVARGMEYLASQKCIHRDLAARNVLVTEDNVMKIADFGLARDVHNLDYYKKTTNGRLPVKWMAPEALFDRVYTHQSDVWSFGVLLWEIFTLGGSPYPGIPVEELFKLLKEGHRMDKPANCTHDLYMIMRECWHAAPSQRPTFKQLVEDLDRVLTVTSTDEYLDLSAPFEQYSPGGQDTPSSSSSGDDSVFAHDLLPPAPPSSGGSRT
Experimental: as §3, §4

FGFR1 = FGFR1 (Homo sapiens, UniProt P11362); assay: In vitro activity inhibition test for kinase FGFR1
Chain of FGFR1 (P11362 22-822): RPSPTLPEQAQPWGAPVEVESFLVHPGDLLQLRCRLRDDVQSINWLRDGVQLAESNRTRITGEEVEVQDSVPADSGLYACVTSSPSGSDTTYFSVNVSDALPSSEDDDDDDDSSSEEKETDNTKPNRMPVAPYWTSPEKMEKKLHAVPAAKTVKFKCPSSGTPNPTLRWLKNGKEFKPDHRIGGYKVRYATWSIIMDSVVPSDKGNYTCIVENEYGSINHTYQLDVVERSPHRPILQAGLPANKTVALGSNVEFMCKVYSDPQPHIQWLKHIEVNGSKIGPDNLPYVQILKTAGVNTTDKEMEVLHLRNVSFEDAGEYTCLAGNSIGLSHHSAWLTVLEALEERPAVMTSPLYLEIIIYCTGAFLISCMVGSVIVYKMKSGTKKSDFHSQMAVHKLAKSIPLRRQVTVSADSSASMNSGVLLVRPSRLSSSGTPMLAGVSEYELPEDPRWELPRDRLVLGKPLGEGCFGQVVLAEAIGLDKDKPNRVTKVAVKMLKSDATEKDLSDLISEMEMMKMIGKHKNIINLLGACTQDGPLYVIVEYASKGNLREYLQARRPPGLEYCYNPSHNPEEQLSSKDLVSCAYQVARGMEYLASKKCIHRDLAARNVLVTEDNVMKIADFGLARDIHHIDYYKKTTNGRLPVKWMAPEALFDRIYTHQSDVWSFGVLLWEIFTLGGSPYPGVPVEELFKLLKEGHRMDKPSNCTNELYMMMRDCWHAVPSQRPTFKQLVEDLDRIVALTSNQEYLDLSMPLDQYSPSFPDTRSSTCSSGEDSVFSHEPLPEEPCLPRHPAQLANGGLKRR
Experimental: as §3, §4

hERG potassium channel = molecular target: T1, hERG potassium channel (Homo sapiens, UniProt Q12809); assay: Determination of potassium channel blockade of hERG (whole-cell patch clamp, Qpatch); format: cell-based; conditions: HEK293 cells stably expressing hERG, tail current, 24° C.
T1 construct: host or cells: HEK293
T1 sequence (Q12809 whole entry): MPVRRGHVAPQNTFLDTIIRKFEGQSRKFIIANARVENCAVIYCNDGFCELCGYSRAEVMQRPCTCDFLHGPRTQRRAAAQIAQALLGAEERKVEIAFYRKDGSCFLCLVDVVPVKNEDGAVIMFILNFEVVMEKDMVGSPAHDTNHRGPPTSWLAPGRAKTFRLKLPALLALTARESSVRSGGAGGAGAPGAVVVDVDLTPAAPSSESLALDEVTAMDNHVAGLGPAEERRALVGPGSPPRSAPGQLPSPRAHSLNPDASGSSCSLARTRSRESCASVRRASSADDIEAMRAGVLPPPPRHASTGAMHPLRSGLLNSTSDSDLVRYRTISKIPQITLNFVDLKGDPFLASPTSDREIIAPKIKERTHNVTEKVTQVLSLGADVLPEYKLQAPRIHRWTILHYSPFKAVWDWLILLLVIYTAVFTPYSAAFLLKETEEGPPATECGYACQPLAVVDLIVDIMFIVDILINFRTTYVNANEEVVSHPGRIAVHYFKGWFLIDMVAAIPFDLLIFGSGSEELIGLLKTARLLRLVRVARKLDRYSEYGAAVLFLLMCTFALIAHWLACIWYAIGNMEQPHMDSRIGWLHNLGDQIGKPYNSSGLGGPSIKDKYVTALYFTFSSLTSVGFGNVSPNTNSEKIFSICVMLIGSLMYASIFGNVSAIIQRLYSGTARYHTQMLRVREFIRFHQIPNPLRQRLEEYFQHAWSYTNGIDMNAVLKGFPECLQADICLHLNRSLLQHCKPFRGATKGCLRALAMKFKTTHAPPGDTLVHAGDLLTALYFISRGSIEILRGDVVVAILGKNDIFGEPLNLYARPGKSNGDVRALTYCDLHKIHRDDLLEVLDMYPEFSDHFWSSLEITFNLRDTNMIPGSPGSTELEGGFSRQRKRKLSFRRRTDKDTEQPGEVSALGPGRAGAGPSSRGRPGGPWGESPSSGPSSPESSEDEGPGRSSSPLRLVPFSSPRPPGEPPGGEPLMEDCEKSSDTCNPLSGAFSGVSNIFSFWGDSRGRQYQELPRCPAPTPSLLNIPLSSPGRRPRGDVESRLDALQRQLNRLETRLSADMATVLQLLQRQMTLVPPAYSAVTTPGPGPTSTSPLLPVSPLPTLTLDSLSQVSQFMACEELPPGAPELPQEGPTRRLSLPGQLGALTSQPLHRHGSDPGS
Experimental: Example 59: Determination of Potassium Channel Blockade of hERG
The experimental methods are in follows:
extracellular fluid: 140 mM NaCl, 3.5 mM KCl, 1 mM MgCl2, 2 mM CaCl2, 10 mM D-glucose, 10 mM HEPES, 1.25 mM NaH2PO4, pH=7.40
ISE Internal Solution: 20 mM KCl, 115 mM K-aspartate, 1 mM MgCl2, 5 mM EGTA, 10 mM HEPES, 2 mM Na2-ATP, pH=7.2
Cell culture: HEK293 cell line with stable expression of hERG potassium channel was used, and hERG potassium channel cells were purchased from Creacell (catalog number: A-0320). It was cultured in DMEM medium containing 10 fetal bovine serum and 0.8 mg/mL G418 at 37° C. and a carbon dioxide concentration of 5%. Take out the old medium and wash once with PBS, then add 2 mL of TrypLE™ Express solution and incubate at 37° C. for about 1 min. When the cell detaches from the bottom of the dish, add approximately 5 mL of complete medium pre-warmed at 37° C. Gently pipette the cell suspension with a pipette to detach the aggregated cells. […]
Each drug concentration is set for two administrations for at least 5 minutes. The tested compound and the compound-free external fluid acts on the cells sequentially from low to high concentration, and each cell uses the current detected in the compound-free exo-liquid as its own control group, and the detection of the two cells is repeated independently. […]

[1] = test system: human bladder cancer cells (RT4); assay: Proliferation inhibition of human bladder cancer cells RT4 (CellTiter-Glo); format: cell-based; conditions: RT4, 3 days
Experimental: (§1) Using the CellTiter-Glo<TM>Live Cell Assay Kit, The inhibitory effect of the test compound on the proliferation of human gastric cancer cells (SNU-16) and FGFR3 high expression and FGFR3 fusion of FGFR3-TACC3 fused human bladder cancer cells (RT4) was determined. Among them, RT4 medium is added with fetal bovine serum and McCoy's 5A medium with a final concentration of 10%.
(§2) Test steps: SNU-16 and RT4 cells that have reached 80% cell confluency were digested by trypsin, centrifuged and re-suspended for counting, and 3500 and 6000 cells/mL of SNU-16 and RT4 cell suspensions were prepared with medium, respectively. Add a 96-well cell culture plate (90 μL/well) and place in a cell culture incubator containing 5% CO2 at 37° C. […] The diluted compound stock solution was further diluted with SNU-16 and RT4 medium and the diluted mixture was transferred to the corresponding cell plates, respectively. […] Mix and centrifuge and then place in a cell culture incubator containing 5% CO2 for 3 days at 37° C. Take out the 96-well cell culture plate and add CellTiterGlo (CTG, Chemiluminescent Cell Viability Assay) reagent (100 L/well. Mix and centrifuge, and then incubate for 10 min at room temperature. After gentle shaking, the absorbance at 450 nm wavelength was determined on the SpectraMax M5 Reader, and the absorbance at 650 nm was used as a reference (i.e., 450 nm absorbance −650 nm absorbance) to calculate the suppression.

[2] = test system: human gastric cancer cells (SNU-16); assay: Proliferation inhibition of human gastric cancer cells SNU-16 (CellTiter-Glo); format: cell-based; conditions: 72 h, SNU-16, 3 days
Experimental: as §1, §2

Chain of FGFR2 (P21802 22-821): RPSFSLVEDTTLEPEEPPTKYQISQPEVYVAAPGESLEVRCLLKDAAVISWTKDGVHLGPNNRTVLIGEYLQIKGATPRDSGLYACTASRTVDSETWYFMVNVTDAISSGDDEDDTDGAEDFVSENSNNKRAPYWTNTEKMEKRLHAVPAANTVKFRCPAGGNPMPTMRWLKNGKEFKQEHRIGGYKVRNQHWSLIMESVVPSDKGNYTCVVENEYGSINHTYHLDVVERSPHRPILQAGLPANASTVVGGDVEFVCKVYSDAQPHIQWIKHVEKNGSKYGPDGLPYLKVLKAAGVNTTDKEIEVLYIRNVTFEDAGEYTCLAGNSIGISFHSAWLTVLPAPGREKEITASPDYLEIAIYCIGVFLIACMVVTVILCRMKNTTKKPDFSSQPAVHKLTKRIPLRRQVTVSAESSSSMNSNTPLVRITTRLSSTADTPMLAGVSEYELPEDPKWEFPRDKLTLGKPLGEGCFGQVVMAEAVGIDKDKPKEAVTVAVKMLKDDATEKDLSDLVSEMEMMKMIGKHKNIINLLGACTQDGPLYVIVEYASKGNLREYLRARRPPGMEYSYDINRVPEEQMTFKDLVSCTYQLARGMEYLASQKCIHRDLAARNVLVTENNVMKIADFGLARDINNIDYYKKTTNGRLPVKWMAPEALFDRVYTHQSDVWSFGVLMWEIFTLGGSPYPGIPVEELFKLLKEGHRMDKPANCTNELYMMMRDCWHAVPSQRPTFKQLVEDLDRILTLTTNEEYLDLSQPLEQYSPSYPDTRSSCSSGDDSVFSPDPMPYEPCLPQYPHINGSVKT

Row | Compound | IC50 (FGFR2) | IC50 (FGFR4) | IC50 (Hep3B cells; Homo sapiens) | IC50 (FGFR3) | IC50 (FGFR1) | inhibition effect on the hERG channel (hERG potassium channel) | IC50 ([1]; Homo sapiens, RT-4, 72 h) | IC50 [2] | IC50 [1] | IC50 (Hep3B cells)
1 | C=CC(=O)N1CC[C@H](n2cc(C#Cc3cc(OC)cc(OC)c3)c3c(N)n[nH]c(=O)c32)C1 [Compound 22, (S)-1-(1-acryloylpyrrolidin-3-yl)-4-amino-3-((3,5-dimethoxyphenyl)ethynyl)-1,6-dihydro-7H-pyrrolo[2,3-d]pyridazin-7-one] | < 10 nM | < 10 nM | < 10 nM | < 10 nM | < 10 nM | – | – | – | – | –
2 | C=CC(=O)N1CC[C@H](n2nc(C#Cc3c(F)c(OC)cc(OC)c3F)c3c(N)n[nH]c(=O)c32)C1 [Compound 28, (S)-1-(1-acryloylpyrrolidin-3-yl)-4-amino-3-((2,6-difluoro-3,5-dimethoxyphenyl)ethynyl)-1,6-dihydro-7H-pyrazolo[3,4-d]pyridazin-7-one] | < 10 nM | < 10 nM | – | < 10 nM | < 10 nM | weak or no inhibition effect | 1.3 nM | 0.025 nM | – | –
3 | C=CC(=O)N1CCC[C@H](n2nc(C#Cc3cc(OC)cc(OC)c3)c3c(N)n[nH]c(=O)c32)C1 [Compound 24, (S)-1-(1-acryloylpiperidin-3-yl)-4-amino-3-((3,5-dimethoxyphenyl)ethynyl)-1,6-dihydro-7H-pyrazolo[3,4-d]pyridazin-7-one] | < 10 nM | < 10 nM | < 10 nM | < 10 nM | < 10 nM | – | – | – | – | –
4 | COc1cc(OC)cc(N(CCNC(C)C)c2ccc3ncc(-c4cnn(C)c4)nc3c2)c1 [Erdafinib] | – | – | – | – | – | – | – | – | 1.8 nM | –
5 | C=CC(=O)N1CC[C@H](n2nc(-c3cc4cc(C)cc(OC)c4s3)c3c(N)n[nH]c(=O)c32)C1 [Compound 36, (S)-1-(1-acryloylpyrrolidin-3-yl)-4-amino-3-(7-methoxy-5-methylbenzo[b]thiophen-2-yl)-1,6-dihydro-7H-pyrazolo[3,4-d]pyridazin-7-one] | < 10 nM | < 10 nM | < 10 nM | < 10 nM | < 10 nM | – | – | – | – | –
6 | C=CC(=O)N1CC[C@H](n2nc(C#Cc3c(Cl)c(OC)cc(OC)c3Cl)c3c(N)n[nH]c(=O)c32)C1 [Compound 30, (S)-1-(1-acryloylpyrrolidin-3-yl)-4-amino-3-((2,6-dichloro-3,5-dimethoxyphenyl)ethynyl)-1,6-dihydro-7H-pyrazolo[3,4-d]pyridazin-7-one] | < 10 nM | < 10 nM | < 10 nM | < 10 nM | < 10 nM | – | – | – | – | –
7 | C=CC(=O)N1CC[C@H](n2nc(C#Cc3cc(OC)cc(OC)c3)c3c(N)n[nH]c(=O)c32)C1 [Compound 26, (S)-1-(1-acryloylpyrrolidin-3-yl)-4-amino-3-((3,5-dimethoxyphenyl)ethynyl)-1,6-dihydro-7H-pyrazolo[3,4-d]pyridazin-7-one] | < 10 nM | < 10 nM | < 10 nM | < 10 nM | < 10 nM | – | – | – | – | –
8 | C=CC(=O)N1CCC[C@H](n2cc(C#Cc3cc(OC)cc(OC)c3)c3c(N)n[nH]c(=O)c32)C1 [Compound 20, (S)-1-(1-acryloylpiperidin-3-yl)-4-amino-3-((3,5-dimethoxyphenyl)ethynyl)-1,6-dihydro-7H-pyrrolo[2,3-d]pyridazin-7-one] | < 10 nM | < 10 nM | < 10 nM | < 10 nM | < 10 nM | – | – | – | – | –
9 | CCN1CCN(c2ccc(Nc3cc(N(C)C(=O)Nc4c(Cl)c(OC)cc(OC)c4Cl)ncn3)cc2)CC1 [BGJ398, infigratinib, reference compound] | – | – | 10 to 100 nM | – | – | – | 11.8 nM | 0.572 nM | – | –
10 | CCN1C(=O)N(c2c(F)c(OC)cc(OC)c2F)Cc2cnc3[nH]c(CN4CCOCC4)cc3c21 [Pemigatinib, reference compound] | – | – | 10 to 100 nM | – | – | – | 6 nM | 0.249 nM | – | –
11 | C=CC(=O)N1CC[C@H](n2cc(-c3cc4cc(C)cc(OC)c4s3)c3c(N)n[nH]c(=O)c32)C1 [Compound 38, (S)-1-(1-acryloylpyrrolidin-3-yl)-4-amino-3-(7-methoxy-5-methylbenzo[b]thiophen-2-yl)-1,6-dihydro-7H-pyrrolo[2,3-d]pyridazin-7-one] | < 10 nM | < 10 nM | < 10 nM | < 10 nM | < 10 nM | moderate inhibitory effect | 3.4 nM | < 0.015 nM | – | –
12 | (S)-4-amino-1-(1-(but-2-ynoyl)pyrrolidin-3-yl)-3-((2,6-difluoro-3,5-dimethoxyphenyl)ethynyl)-1,6-dihydro-7H-pyrazolo[3,4-d]pyridazin-7-one [Compound 34] | – | – | – | – | – | – | – | – | – | < 10 nM
13 | C=CC(=O)N1CC[C@H](Nc2nccc(C#Cc3cc(OC)cc(OC)c3)n2)C1 [Compound 1, (S)-1-(3-((4-((3,5-dimethoxyphenyl)ethynyl)pyrimidin-2-yl)amino)pyrrolidin-1-yl)prop-2-en-1-one] | 10 to 100 nM | 10 to 100 nM | – | 100 to 500 nM | 10 to 100 nM | – | – | – | – | –
14 | C=CC(=O)N1CCC2(CC1)CC(Nc1nc(N)c(C(N)=O)c(C#Cc3cc(OC)cc(OC)c3)n1)C2 [Compound 9, 2-((7-acryloyl-7-azaspiro[3.5]nonan-2-yl)amino)-4-amino-6-((3,5-dimethoxyphenyl)ethynyl)pyrimidine-5-carboxamide] | 10 to 100 nM | 100 to 500 nM | – | 10 to 100 nM | 100 to 500 nM | – | – | – | – | –
15 | CC#CC(=O)N1CC[C@H](Nc2nc(N)c(C(N)=O)c(C#Cc3cc(OC)cc(OC)c3)n2)C1 [Compound 12, (S)-4-amino-2-((1-(but-2-ynoyl)pyrrolidin-3-yl)amino)-6-((3,5-dimethoxyphenyl)ethynyl)pyrimidine-5-carboxamide] | < 10 nM | < 10 nM | – | < 10 nM | < 10 nM | – | – | – | – | –
